US20060078629A1, “Nutritional compositions and use thereof” (priority 2003, published 2006)

Tests used:
[1] = system: chemically induced cancers; conditions: in vivo; cited from earlier work
[2] = system: DNA damage in various tissues; conditions: Food Chem Toxicol 2000, 38:15; cited from earlier work
[3] = slow (e.g. 20 minutes) intravenous injection, 400 mg glutathione in 20 ml saline
From the text: According to one aspect of the invention, the intravenous administration of glutathione is used to achieve the desired blood levels. […] Repeated injections may be necessary in severely ill patients.

Row | Structure (SMILES) | prevention of chemically induced cancers [1] | decrease of DNA damage in various tissues [2] | achieving the desired blood glutathione levels [3]
1 | OCc1c[nH]c2ccccc12 [Example I3C, Indole-3-carbinol] | up to 90% | 67-82% | –
2 | N[C@@H](CCC(=O)N[C@@H](CS)C(=O)NCC(=O)O)C(=O)O [glutathione] | – | – | effective
